Assay results from paper PMC6530361, “Anti-tumor Efficacy Assessment of the Sigma Receptor Pan Modulator RC-106. A Promising Therapeutic Tool for Pancreatic Cancer” (Frontiers in Pharmacology, 2019).
Like-named read-outs stand apart in the source and are kept apart here.

Columns and labels:
Panc-1 spheroids = assay: CellTiter-Glo 3D cell viability assay; format: cell-based; conditions: Homo sapiens, PANC-1, 48 h, 3D spheroids, diameter up to 600 μm, 12.5–50 μM
Experimental: Spheroids were obtained as previously described ([Zanoni et al., 2016]). Briefly, a rotatory cell culture system RCCS (Synthecon Inc., Houston, TX, United States) was used. The rotary systems were placed inside a humidified 37°C, 5% CO2 incubator and all procedures were performed in sterile conditions. Single cell suspensions of about 1 × 10^6 cells/ml of Panc-1 were placed in the 50 mL rotating chamber at an initial speed of 12 rpm. Speed was increased as cells formed aggregates to avoid sedimentation. The culture medium was changed every 4 days and tumor spheroids with an equivalent diameter ranging from about 500–1300 μm were obtained in around 15 days. After formation, spheroids were transferred into a 96-well low-attachment culture plates (Corning Inc., Corning, NY, United States; one spheroid/well), containing 100 μL of fresh culture medium per well.
Cell viability of Panc-1 spheroids was measured using a 3D cell viability assay (Promega, Milan, Italy). Briefly, homogeneous spheroids were removed from the 96-well low-attachment culture plate and placed separately in single wells of a 96-well opaque culture plate (BD Falcon). CellTiter-Glo® 3D reagent was added to each well and the luminescence signal was read after 30 min with the GloMax® bioluminescent reader (Promega).
The analysis of morphological parameters were performed as previously described ([Piccinini et al., 2017]). […]

Capan-2 [1] = assay: Real-Time qRT-PCR of ER stress/UPR marker genes; format: cell-based; conditions: Capan-2, RC-106 50 μM, higher than untreated cells
Experimental: (§1) Total cellular RNA was extracted using TRIzol reagent (Life technologies) in accordance with manufacturer’s instruction and quantified using the Nanodrop MD-1000 spectrophotometer system. Reverse transcription reactions were performed in 20 μL of nuclease free water containing 400 ng of total RNA using iScript cDNA Synthesis kit (Bio-Rad Laboratories, Hercules, CA). Real-Time PCR was run using 7500 Fast Real-Time PCR system (Applied Biosystems) and TaqMan assays to detect the expression of SIGMAR1, TMEM97, GRP78/BiP, ATF4, and CHOP genes.
(§2) Reactions were carried out in triplicate at a final volume of 20 μL containing 40 ng of cDNA template, TaqMan universal PCR Master Mix (2X), and selected TaqMan assays (20X). Samples were maintained at 50°C for 2 min, then at 95°C for 10 min followed by 40 amplification cycles at 95°C for 15 s, and at 60°C for 30 s.
(§3) The amount of mRNA was normalized to the endogenous genes GAPDH and HPRT-1.

Capan-1 [2] = assay: MTS assay (cell viability, 2D); format: cell-based; conditions: Homo sapiens
Experimental: (§4) Pancreatic adenocarcinoma Panc-1, Capan-1, and Capan-2, cell lines were purchased by the ATCC. All cell lines were grown in culture medium composed of DMEM/Ham’s F12 (1:1; Euroclone) supplemented with fetal calf serum (10%; Euroclone), glutamine (2 mM; Euroclone), and insulin (10 μg/mL; Sigma-Aldrich, St. Louis, MO, United States). All experiments were performed on cells in the exponential growth phase and checked periodically for mycoplasma contamination by MycoAlert^TM Mycoplasma Detection Kit (Lonza, Basel, Switzerland).
(§5) Cytotoxicity was assayed using CellTiter 96® AQueous One Solution Cell Proliferation Assay (Promega, Milan, Italy). Cells were seeded onto a 96-well plate at a density of 3 × 10^3 cells per well. Cell lines were exposed to increasing concentrations of the drug, ranging from 0.1 to 100 μM. The effect of the drug was evaluated after 24, 48, and 72 h of continued exposure. Two independent experiments were performed in octuplicate. The OD of treated and untreated cells was determined at a wavelength of 490 nm using a […].
(§6) Dose response curves were created by Excel software. IC50 values were determined graphically from the plot.

Panc-1 [3] = assay: MTS assay (cell viability, 2D); format: cell-based; conditions: Homo sapiens
Experimental: as §4, §5, §6

Capan-2 [4] = assay: MTS assay (cell viability, 2D); format: cell-based; conditions: Homo sapiens
Experimental: as §4, §5, §6

[5] = test system: Panc-1, Capan-1, and Capan-2; assay: Real-Time qRT-PCR of ER stress/UPR marker genes, all cell lines; format: cell-based; conditions: exposure to 50 μM; 6, 12, and 24 h
Experimental: as §1, §2, §3

[6] = test system: Panc-1, Capan-1, and Capan-2; assay: MTS assay, all cell lines tested; format: cell-based; conditions: 24, 48, and 72 h exposure
Experimental: as §4, §5, §6

Capan-1 [7] = assay: Western Blot of caspase 3 and 9 activation; format: cell-based; conditions: Capan-1, 12 h, 50 μM
Experimental: (§7) Western Blot were performed as previously described ([Arienti et al., 2016]). Briefly, Cell proteins were extracted with M-PER (Thermo Fisher Scientific) supplemented with Halt Protease Phosphatase Inhibitor Cocktail (Thermo Fisher Scientific).
(§8) Mini-PROTEANTGX^TM precast gels (4–20% and any kD; BIO-RAD) were run using Mini-PROTEAN Tetra electrophoresis cells and then electroblotted by Trans-Blot Turbo^TM Mini PVDF Transfer Packs (BIORAD). The unoccupied membrane sites were blocked with T-TBS 1X (Tween 0.1%) and 5% non-fat dry milk to prevent non-specific binding of antibodies and probed with specific primary antibodies overnight at 4°C. This was followed by incubation with the respective secondary antibodies. The antibody-antigen complexes were detected with Immun-Star^TM WesternC^TM kit (BIO-RAD).
(§9) The following primary antibodies were used: anti-sigma receptor (S18): sc-22948 (Santa Cruz Biotechnology inc.), anti-TMEM97, anti-caspase-3, and anti-caspase-9. Anti-vinculin (sc-5573) from Santa Cruz Biotechnology and anti-actin from Sigma Aldrich Inc., were used as housekeeping. Quantity One Software was used for analysis.

Panc-1 [8] = assay: Western Blot of caspase 3 and 9 activation; format: cell-based; conditions: Panc-1, 48 h, 25 μM
Experimental: as §7, §8, §9

Capan-2 [9] = assay: Western Blot of caspase 3 and 9 activation; format: cell-based; conditions: Capan-2, 48 h, 25 μM
Experimental: as §7, §8, §9

- melting point: 221 to 222 °C
- IC50 (Panc-1 spheroids): 39.6 µM
- IC50 (Panc-1 [3]; PANC-1, 24 h exposure, read-out: IC50 values 24h): 55.3 ± 0.7 µM
- IC50 (Panc-1 [3]; PANC-1, 48 h exposure, read-out: IC50 values 48h): 51.7 ± 1.38 µM
- IC50 (Panc-1 [3]; PANC-1, 72 h exposure, read-out: IC50 values 72h): 52.1 ± 0.47 µM
- IC50 [6]: 33 to 57 µM
SMILES: C/C(=C\CN1CCC(Cc2ccccc2)CC1)c1ccc2ccccc2c1 [RC-106, (E)-4-benzyl-1-(3-(naphthalen-2-yl)but-2-en-1-yl)piperidine]
- increase in expression of CHOP mRNA (Capan-2 [1]): 70 fold
- IC50 (Capan-1 [2]; CAPAN-1, 24 h exposure, read-out: IC50 values 24h): 56.8 ± 0.98 µM
- IC50 (Capan-1 [2]; CAPAN-1, 48 h exposure, read-out: IC50 values 48h): 50.3 ± 3.04 µM
- IC50 (Capan-1 [2]; CAPAN-1, 72 h exposure, read-out: IC50 values 72h): 32.8 ± 3.43 µM
- IC50 (Capan-2 [4]; CAPAN-2, 24 h exposure, read-out: IC50 values 24h): 52.6 ± 0.07 µM
- IC50 (Capan-2 [4]; CAPAN-2, 48 h exposure, read-out: IC50 values 48h): 54.2 ± 2.18 µM
- IC50 (Capan-2 [4]; CAPAN-2, 72 h exposure, read-out: IC50 values 72h): 53.3 ± 1.62 µM
- mRNA expression of ER markers GRP78/BiP, ATF4, and CHOP [5]: highly increased
- caspases 3 and 9 cleavage (Capan-1 [7]): cleaved
- caspases 3 and 9 cleavage (Panc-1 [8]): cleaved
- caspases 3 and 9 cleavage (Capan-2 [9]): cleaved
